Earlier results, collected in patent US6548087B1, “Nutritional supplement” (priority 1999, dated 2003).

Tested on: libido and performance
Settings: daily use

In the case of `C[C@]12CC[C@H](O)CC1=CC[C@@H]1[C@@H]2CC[C@]2(C)C(=O)CC[C@@H]12` [DHEA, dehydroepiandrosterone], the “effect on libido and performance” value is given as “increase libido and performance”.
